A short description of data set [1]: Cytotoxicity against human HEL cells. The format is cell-based.
The next data set concerns Human betaherpesvirus 5. As to the kind of experiment: Antiviral activity against Cytomegalovirus AD-169 infected in HEL cells assessed as inhibition of virus-induced cytopathicity. Type of data set: functional, organism-based. Conditions: Human betaherpesvirus 5, AD169, HEL.
Data set [2] deals with Human alphaherpesvirus 1. The data set can be described thus: Antiviral activity against thymidine kinase-deficient ACV-resistant HSV-1 KOS infected in HEL cells assessed as inhibition of virus-induced cytopathicity. The following applies: Human alphaherpesvirus 1, KOS. The format is functional, organism-based. (In general: Cytopathic effects are the visible damage that an infection or toxin causes in cultured cells.)

A short description of data set [3]: Cytotoxicity against cat CRFK cells. Type of data set: cell-based, Felis catus.
For another data set, the system named is Feline coronavirus. As to the kind of experiment: Antiviral activity against Feline coronavirus in cat CrFK cells assessed as plaque formation. Type of data set: functional, organism-based. The following applies: Alphacoronavirus 1, CRFK.
In a further data set the test system is Human alphaherpesvirus 2. The data set can be described thus: Antiviral activity against HSV-2 G infected in HEL cells assessed as inhibition of virus-induced cytopathicity. Type of data set: functional, organism-based. The following applies: Human alphaherpesvirus 2, strain G.
The subject of the next data set is Felid alphaherpesvirus 1. The data set can be described thus: Antiviral activity against Feline herpesvirus in cat CrFK cells assessed as plaque formation. Conditions: Felid alphaherpesvirus 1, CRFK. The format is functional, organism-based.
For data set [4], the system named is Human immunodeficiency virus 2. As to the kind of experiment: Antiviral activity against HIV-2 ROD infected in human CEM cells assessed as HIV-induced host giant cell formation after 4 days by microscopic analysis. Type of data set: functional, organism-based. Conditions: Human immunodeficiency virus 2, ISOLATE ROD, CCRF-CEM, 96 h.
In a further data set the test system is L1210. The data set can be described thus: Cytotoxicity against mouse L1210 cells. Type of data set: cell-based.
The subject of data set [5] is Human alphaherpesvirus 3. As to the kind of experiment: Antiviral activity against Varicellla-zoster virus 07-1 infected in HEL cells assessed as inhibition of virus-induced cytopathicity. The format is functional, organism-based. Conditions: Human alphaherpesvirus 3, 07-1, HEL.
Data set [6] deals with Vesicular stomatitis virus. The data set can be described thus: Antiviral activity against Vesicular somatitis virus infected in HEL cells assessed as inhibition of virus-induced cytopathicity. Type of data set: functional, organism-based.
The test system of another data set is Cytomegalovirus. As to the kind of experiment: Antiviral activity against Cytomegalovirus Davis infected in HEL cells assessed as inhibition of virus-induced cytopathicity. Type of data set: functional, organism-based. The following applies: Human betaherpesvirus 5, Davis.
The test system of another data set is Vaccinia virus. As to the kind of experiment: Antiviral activity against Vaccinia virus Lederle infected in HEL cells assessed as inhibition of virus-induced cytopathicity. Type of data set: functional, organism-based. The following applies: Orthopoxvirus vaccinia.
For data set [7], the system named is Human alphaherpesvirus 3. As to the kind of experiment: Antiviral activity against Varicellla-zoster virus Oka infected in HEL cells assessed as inhibition of virus-induced cytopathicity. Type of data set: functional, cell-based. Conditions: Human alphaherpesvirus 3, strain Oka vaccine.
Data set [8] deals with Human immunodeficiency virus 1. The data set can be described thus: Antiviral activity against HIV-1 3B infected in human CEM cells assessed as HIV-induced host giant cell formation after 4 days by microscopic analysis. Type of data set: functional, organism-based. Conditions: Human immunodeficiency virus 1, 3B, CCRF-CEM, 96 h.
The test system of data set [9] is Human alphaherpesvirus 1. The data set can be described thus: Antiviral activity against HSV-1 KOS infected in HEL cells assessed as inhibition of virus-induced cytopathicity. The format is functional, organism-based. The following applies: Human alphaherpesvirus 1, KOS.
In another data set the test system is CCRF-CEM. As to the kind of experiment: Cytotoxicity against human CEM cells. The format is cell-based.

For orientation: EC50 means the concentration that produces a half-maximal response. For orientation: CC50 means the concentration that lowers cell viability or growth by half. Usually IC50 stands for the concentration needed to halve the response being measured. A low value points to inhibition by little substance.

The structures appear in SMILES notation.

The compound `C[C@H](NP(=O)(Oc1cccc2ccccc12)O[C@H]1O[C@H](CO)[C@@H](O)C1(F)F)C(=O)OC1CCCCC1` (stereo partly drawn) yielded an MCC in data set [1] of at least 100 µM. The EC50 was above 20 µM in the data set on Human betaherpesvirus 5; above 20 µM in the data set on Human alphaherpesvirus 1 [2]; above 20 µM in the data set on Feline coronavirus; above 20 µM in the data set with Human alphaherpesvirus 2; above 20 µM in the data set on Felid alphaherpesvirus 1; above 50 µM in [4]. In addition, the EC50 was above 20 µM in the data set with Human alphaherpesvirus 3 [5]; above 20 µM in data set [6]; above 20 µM with Cytomegalovirus; above 20 µM with Vaccinia virus; above 20 µM in the data set on Human alphaherpesvirus 3 [7]; above 50 µM in data set [8]. Besides, the concentration giving a half-maximal response (EC50) with Human alphaherpesvirus 1 [9] is above 20 µM. Moreover, the CC50 in data set [3] is above 100 µM. Besides, the half-inhibitory concentration (IC50) with L1210 and with CCRF-CEM was above 30 µM each time.

Compound `C[C@H](NP(=O)(Oc1ccccc1)O[C@@H]1O[C@H](CO)[C@@H](O)C1(F)F)C(=O)OC1CCCCC1` (stereo partly drawn) returned an MCC in data set [1] of at least 100 µM. Further, the EC50 in the data set with Human betaherpesvirus 5 was above 20 µM; in the data set on Human alphaherpesvirus 1 [2], above 20 µM; with Feline coronavirus, above 20 µM; in the data set on Human alphaherpesvirus 2, above 20 µM; with Felid alphaherpesvirus 1 it was above 20 µM; in [4], above 250 µM. Moreover, the EC50 in the data set with Human alphaherpesvirus 3 [5] was above 20 µM; in data set [6], above 20 µM; in the data set on Cytomegalovirus it was above 20 µM; in the data set on Vaccinia virus it was above 20 µM; in the data set on Human alphaherpesvirus 3 [7], above 20 µM; in data set [8], above 250 µM. The concentration giving a half-maximal response (EC50) in the data set with Human alphaherpesvirus 1 [9] was above 20 µM. The compound also came in with a CC50 in [3] above 100 µM. Besides, the IC50 in the data set on L1210 and in the data set on CCRF-CEM was above 30 µM in each case.

In [1], `C[C@H](NP(=O)(Oc1cccc2ccccc12)O[C@@H]1O[C@H](CO)[C@@H](O)C1(F)F)C(=O)OC1CCCCC1` (mixture of isomers) registered an MCC of at least 100 µM. Further, the concentration giving a half-maximal response (EC50) was above 20 µM in the data set with Human betaherpesvirus 5; above 20 µM with Human alphaherpesvirus 1 [2]; above 20 µM in the data set with Feline coronavirus; above 20 µM in the data set on Human alphaherpesvirus 2; above 20 µM in the data set with Felid alphaherpesvirus 1; above 50 µM in data set [4]. Moreover, the EC50 was above 20 µM with Human alphaherpesvirus 3 [5]; above 20 µM in data set [6]; above 20 µM with Cytomegalovirus; above 20 µM in the data set on Vaccinia virus; above 20 µM with Human alphaherpesvirus 3 [7]; above 50 µM in data set [8]. Moreover, the EC50 with Human alphaherpesvirus 1 [9] is above 20 µM. In addition, the CC50 in [3] is above 100 µM. In addition, the IC50 in the data set with L1210 and with CCRF-CEM was above 30 µM in each case.

As to `C[C@H](NP(=O)(Oc1ccccc1)O[C@H]1O[C@H](CO)[C@@H](O)C1(F)F)C(=O)OCC(C)(C)C` (mixture of isomers), the MCC in data set [1] is at least 100 µM. The half-maximal effective concentration (EC50) with Human betaherpesvirus 5 is above 20 µM; in the data set with Human alphaherpesvirus 1 [2], above 20 µM; with Feline coronavirus, above 20 µM; in the data set on Human alphaherpesvirus 2 it was above 20 µM; with Felid alphaherpesvirus 1, above 20 µM; in data set [4], above 250 µM. Besides, the half-maximal effective concentration (EC50) is above 20 µM in the data set with Human alphaherpesvirus 3 [5]; above 20 µM in data set [6]; above 20 µM with Cytomegalovirus; above 20 µM in the data set on Vaccinia virus; above 20 µM in the data set on Human alphaherpesvirus 3 [7]; above 250 µM in data set [8]. For the same compound, the EC50 in the data set on Human alphaherpesvirus 1 [9] is above 20 µM. In data set [3], this compound displayed a 50% cytotoxic concentration (CC50) above 100 µM. The half-inhibitory concentration (IC50) with L1210 and with CCRF-CEM was above 30 µM in each case.

As to `COC(=O)[C@H](C)NP(=O)(Oc1ccccc1)O[C@H]1O[C@H](CO)[C@@H](O)C1(F)F` (mixture of isomers), the MCC in [1] was at least 100 µM. Also, the EC50 was above 20 µM with Human betaherpesvirus 5; above 20 µM in the data set on Human alphaherpesvirus 1 [2]; above 20 µM with Feline coronavirus; above 20 µM in the data set on Human alphaherpesvirus 2; above 20 µM in the data set on Felid alphaherpesvirus 1; above 250 µM in data set [4]. For the same compound, the half-maximal effective concentration (EC50) is above 20 µM in the data set on Human alphaherpesvirus 3 [5]; above 20 µM in data set [6]; above 20 µM in the data set on Cytomegalovirus; above 20 µM in the data set with Vaccinia virus; above 20 µM with Human alphaherpesvirus 3 [7]; above 250 µM in [8]. In addition, the EC50 with Human alphaherpesvirus 1 [9] is above 20 µM. In [3], this compound registered a CC50 above 100 µM. The IC50 in the data set with L1210 and with CCRF-CEM was above 30 µM throughout.

Consider `COC(=O)[C@@H](NP(=O)(Oc1ccccc1)O[C@H]1O[C@H](CO)[C@@H](O)C1(F)F)C(C)C` (mixture of isomers), for which the MCC in data set [1] is at least 100 µM. The EC50 in the data set on Human betaherpesvirus 5 is above 20 µM; with Human alphaherpesvirus 1 [2] it was above 20 µM; with Feline coronavirus it was above 20 µM; in the data set with Human alphaherpesvirus 2 it was above 20 µM; in the data set on Felid alphaherpesvirus 1, above 20 µM; in data set [4], above 250 µM. For the same compound, the EC50 was above 20 µM with Human alphaherpesvirus 3 [5]; above 20 µM in data set [6]; above 20 µM in the data set on Cytomegalovirus; above 20 µM with Vaccinia virus; above 20 µM with Human alphaherpesvirus 3 [7]; above 250 µM in [8]. The EC50 in the data set on Human alphaherpesvirus 1 [9] is above 20 µM. This compound returned a CC50 in [3] above 100 µM. The IC50 in the data set with L1210 and in the data set with CCRF-CEM was above 30 µM in each case.

`COC(=O)[C@@H](NP(=O)(Oc1cccc2ccccc12)O[C@H]1O[C@H](CO)[C@@H](O)C1(F)F)C(C)C` (mixture of isomers) showed an MCC in data set [1] of at least 100 µM. Also, the EC50 in the data set with Human betaherpesvirus 5 was above 20 µM; with Human alphaherpesvirus 1 [2], above 20 µM; with Feline coronavirus, above 20 µM; in the data set with Human alphaherpesvirus 2, above 20 µM; in the data set with Felid alphaherpesvirus 1, above 20 µM; in data set [4] it was above 50 µM. The EC50 in the data set with Human alphaherpesvirus 3 [5] was above 20 µM; in [6] it was above 20 µM; with Cytomegalovirus, above 20 µM; in the data set with Vaccinia virus, above 20 µM; in the data set on Human alphaherpesvirus 3 [7], above 20 µM; in data set [8], above 50 µM. Moreover, the half-maximal effective concentration (EC50) with Human alphaherpesvirus 1 [9] is above 20 µM. In data set [3], this compound had a CC50 above 100 µM. Moreover, the IC50 in the data set on L1210 and in the data set on CCRF-CEM was above 30 µM throughout.

Compound `C[C@H](NP(=O)(Oc1cccc2ccccc12)O[C@H]1O[C@H](CO)[C@@H](O)C1(F)F)C(=O)OCC(C)(C)C` (mixture of isomers) came in with an MCC in data set [1] of at least 100 µM. Further, the EC50 in the data set with Human betaherpesvirus 5 was above 20 µM; in the data set with Human alphaherpesvirus 1 [2], above 20 µM; in the data set with Feline coronavirus it was above 20 µM; in the data set on Human alphaherpesvirus 2 it was above 20 µM; in the data set on Felid alphaherpesvirus 1 it was above 20 µM; in [4] it was above 50 µM. In addition, the EC50 is above 20 µM with Human alphaherpesvirus 3 [5]; above 20 µM in data set [6]; above 20 µM in the data set on Cytomegalovirus; above 20 µM with Vaccinia virus; above 20 µM in the data set on Human alphaherpesvirus 3 [7]; above 50 µM in data set [8]. The concentration giving a half-maximal response (EC50) with Human alphaherpesvirus 1 [9] is above 20 µM. Moreover, in [3], the CC50 was above 100 µM. The IC50 in the data set with L1210 and with CCRF-CEM was above 30 µM in each case.

Take `COC(=O)[C@H](C)NP(=O)(Oc1cccc2ccccc12)O[C@H]1O[C@H](CO)[C@@H](O)C1(F)F` (mixture of isomers): in [1], the MCC is at least 100 µM. The half-maximal effective concentration (EC50) was above 20 µM with Human betaherpesvirus 5; above 20 µM in the data set with Human alphaherpesvirus 1 [2]; above 20 µM in the data set on Feline coronavirus; above 20 µM with Human alphaherpesvirus 2; above 20 µM in the data set with Felid alphaherpesvirus 1; above 50 µM in [4]. Besides, the concentration giving a half-maximal response (EC50) in the data set on Human alphaherpesvirus 3 [5] was above 20 µM; in data set [6], above 20 µM; in the data set with Cytomegalovirus, above 20 µM; in the data set on Vaccinia virus it was above 20 µM; with Human alphaherpesvirus 3 [7], above 20 µM; in data set [8], above 50 µM. Further, the 50% effective concentration (EC50) in the data set on Human alphaherpesvirus 1 [9] is above 20 µM. Further, the CC50 in [3] was above 100 µM. In addition, the IC50 in the data set on L1210 and in the data set with CCRF-CEM was above 30 µM each time.

The values are drawn from ChEMBL document CHEMBL2385007, “Synthesis and biological evaluation of prodrugs of 2-fluoro-2-deoxyribose-1-phosphate and 2,2-difluoro-2-deoxyribose-1-phosphate” (Bioorg Med Chem Lett, 2013).
